Data reported in patent US11339419B2, “Scavenger protein(s) for improved preservation of analyte detection sensor(s) and method(s) of use thereof” (Siemens Healthcare Diagnostics Inc., priority 2017, dated 2022).
Several values for one entry are separate records, joined by “and”; a condition that tells them apart may be missing. Equal values may be shown once.

Legend:
Assay type in all cases: biochemical
[1] = test system: sarcosine oxidase (Toyobo); assay: Toyobo Sarcosine Oxidase Enzyme Absorbance with BSA and MIT; details: for % Bias / Sarcosine Oxidase Enzyme Absorbance, MEAN of 1-5: Day 14; for % Bias: 100 ppm MIT vs no MIT; for Sarcosine Oxidase Enzyme Absorbance, MEAN of 1-5: 100 ppm MIT, 37° C.
Description: Tables 1-4 depict aqueous solutions comprising varying concentrations of BSA (at concentrations of 0 mg/mL, 5 mg/mL, 25 mg/mL, and 50 mg/mL), varying concentrations of MIT (at concentrations of 50 parts per million and 100 parts per million) or Proclin™ 300 (at concentrations of 0.7% and 1.4%) biocides over a particular time period (measurements were taken at days 0, 4, and 14 after exposure of the enzyme(s) to the aqueous solutions) and the associated enzyme absorbance measurements for sarcosine oxidase (commercially offered for sale by BBI Solutions and Toyobo). Absorbance measurements of the sarcosine oxidase enzyme(s) were taken via spectrophotometer for each aqueous solution (represented as columns 1-5 in Tables 1-4—column 6 is a blank), the absorbance being directly proportional to the enzyme activity being measured-which for Tables 1-4 is sarcosine oxidase enzyme activity. Accordingly, the higher the absorbance measurement, the higher the enzyme activity of sarcosine oxidase. Columns 7-11 represent five replicate readings in which the aqueous solution only contains BSA (i.e., there is no biocide(s) present in the aqueous solution). In addition, the mean values, standard deviations, and coefficients of variation are also presented for the enzyme activity/absorbance of each aqueous solution. All measurements were taken at 37° C.
As depicted below in Table 2, sarcosine oxidase (commercially offered for sale by Toyobo) enzyme activity is measured against various concentrations of MIT (biocide) and BSA (scavenger protein) over a period of 14 days (with absorbance measurements taken at 0, 4, and 14 days) for five different aqueous solutions (represented as columns 1-5-column 6 is a blank).

[2] = test system: sarcosine oxidase (Toyobo); assay: Toyobo Sarcosine Oxidase Enzyme Absorbance with BSA and Proclin 300
Description: (§1) Absorbance measurements of the sarcosine oxidase enzyme(s) were taken via spectrophotometer for each aqueous solution (represented as columns 1-5 in Tables 1-4—column 6 is a blank), the absorbance being directly proportional to the enzyme activity being measured-which for Tables 1-4 is sarcosine oxidase enzyme activity. Accordingly, the higher the absorbance measurement, the higher the enzyme activity of sarcosine oxidase. […] In addition, the mean values, standard deviations, and coefficients of variation are also presented for the enzyme activity/absorbance of each aqueous solution. All measurements were taken at 37° C.

[3] = test system: creatininase (BBI Solutions); assay: BBI Solutions Creatininase Enzyme Absorbance with BSA and Proclin 300
Description: as §1, with “creatininase” for “sarcosine oxidase”, “5-8—column” for “1-4—column”, “5-8” for “1-4”, “creatininase.” for “sarcosine oxidase.”, “all” for “also”

[4] = Day 0, BSA 5 mg/mL only, no Proclin 300, line of 0.7% Proclin 300
[5] = Day 0, BSA 5 mg/mL only, no Proclin 300, line of 1.4% Proclin 300
[6] = Day 0, BSA 25 mg/mL only, no Proclin 300, line of 0.7% Proclin 300
[7] = Day 0, BSA 25 mg/mL only, no Proclin 300, line of 1.4% Proclin 300
[8] = Day 0, BSA 50 mg/mL only, no Proclin 300, line of 0.7% Proclin 300
[9] = Day 0, BSA 50 mg/mL only, no Proclin 300, line of 1.4% Proclin 300
[10] = days 4 and 14, only BSA, no Proclin 300
[11] = Day 0, BSA 5 mg/mL only, no Proclin 300, listed as of 0.7% Proclin 300
[12] = Day 0, BSA 5 mg/mL only, no Proclin 300, listed as of 1.4% Proclin 300
[13] = Day 0, BSA 25 mg/mL only, no Proclin 300, listed as of 0.7% Proclin 300
[14] = Day 0, BSA 25 mg/mL only, no Proclin 300, listed as of 1.4% Proclin 300
[15] = Day 0, BSA 50 mg/mL only, no Proclin 300, listed as of 0.7% Proclin 300
[16] = Day 0, BSA 50 mg/mL only, no Proclin 300, listed as of 1.4% Proclin 300
[17] = Day 4, BSA 5 mg/mL only, no Proclin 300, listed as of 0.7% Proclin 300
[18] = Day 4, BSA 5 mg/mL only, no Proclin 300, listed as of 1.4% Proclin 300
[19] = Day 4, BSA 25 mg/mL only, no Proclin 300, listed as of 0.7% Proclin 300
[20] = Day 4, BSA 25 mg/mL only, no Proclin 300, listed as of 1.4% Proclin 300
[21] = Day 4, BSA 50 mg/mL only, no Proclin 300, listed as of 0.7% Proclin 300
[22] = Day 4, BSA 50 mg/mL only, no Proclin 300, listed as of 1.4% Proclin 300
[23] = Day 14, BSA 5 mg/mL only, no Proclin 300, listed as of 0.7% Proclin 300
[24] = Day 14, BSA 5 mg/mL only, no Proclin 300, listed as of 1.4% Proclin 300
[25] = Day 14, BSA 25 mg/mL only, no Proclin 300, listed as of 0.7% Proclin 300
[26] = Day 14, BSA 25 mg/mL only, no Proclin 300, listed as of 1.4% Proclin 300
[27] = Day 14, BSA 50 mg/mL only, no Proclin 300, listed as of 0.7% Proclin 300
[28] = Day 14, BSA 50 mg/mL only, no Proclin 300, listed as of 1.4% Proclin 300

bovine serum albumin [BSA]
% Bias ([1]; 25 mg/mL BSA): −0.1% | % Bias ([1]; 50 mg/mL BSA): 0.2% | Sarcosine Oxidase Enzyme Absorbance, MEAN of 1-5 ([1]; 5 mg/mL BSA): 0.31 | Sarcosine Oxidase Enzyme Absorbance, MEAN of 1-5 ([1]; 25 mg/mL BSA): 1.41 | Sarcosine Oxidase Enzyme Absorbance, MEAN of 1-5 ([1]; 50 mg/mL BSA): 1.42 | absorbance of the sarcosine oxidase enzyme compared to samples containing 0 mg/mL of BSA ([1]; days 4 and 14, 5, 25 and 50 mg/mL BSA, with MIT): increased absorbance | sarcosine oxidase absorbance, solutions 7-11 ([1]; days 4 and 14, only BSA, no MIT): increased (or at least maintained) | Absorbance, solutions 7-11 [2, 4]: 1.419 | MEAN absorbance, solutions 7-11 [2, 4]: 1.39 | Absorbance, solutions 7-11 [2, 5]: 1.397 and 1.427 and 1.404 | MEAN absorbance, solutions 7-11 [2, 5]: 1.35 | Absorbance, solutions 7-11 [2, 6]: 1.443 | MEAN absorbance, solutions 7-11 [2, 6]: 1.40 | Absorbance, solutions 7-11 [2, 7]: 1.403 and 1.426 and 1.429 and 1.44 | MEAN absorbance, solutions 7-11 [2, 7]: 1.37 | Absorbance, solutions 7-11 [2, 8]: 1.418 | MEAN absorbance, solutions 7-11 [2, 8]: 1.39 | Absorbance, solutions 7-11 [2, 9]: 1.409 and 1.41 and 1.444 | MEAN absorbance, solutions 7-11 [2, 9]: 1.37 | MEAN absorbance, solutions 7-11 ([2]; Day 4, BSA 5 mg/mL only, no Proclin 300, line of 0.7% Proclin 300): 0.81 | MEAN absorbance, solutions 7-11 ([2]; Day 4, BSA 5 mg/mL only, no Proclin 300, line of 1.4% Proclin 300): 0.86 | MEAN absorbance, solutions 7-11 ([2]; Day 4, BSA 25 mg/mL only, no Proclin 300, line of 0.7% Proclin 300): 1.30 | MEAN absorbance, solutions 7-11 ([2]; Day 4, BSA 25 mg/mL only, no Proclin 300, line of 1.4% Proclin 300): 1.32 | MEAN absorbance, solutions 7-11 ([2]; Day 4, BSA 50 mg/mL only, no Proclin 300, line of 0.7% Proclin 300): 1.31 | MEAN absorbance, solutions 7-11 ([2]; Day 4, BSA 50 mg/mL only, no Proclin 300, line of 1.4% Proclin 300): 1.32 | MEAN absorbance, solutions 7-11 ([2]; Day 14, BSA 5 mg/mL only, no Proclin 300, line of 0.7% Proclin 300): 0.25 | MEAN absorbance, solutions 7-11 ([2]; Day 14, BSA 5 mg/mL only, no Proclin 300, line of 1.4% Proclin 300): 0.29 | MEAN absorbance, solutions 7-11 ([2]; Day 14, BSA 25 mg/mL only, no Proclin 300, line of 0.7% Proclin 300): 1.34 | MEAN absorbance, solutions 7-11 ([2]; Day 14, BSA 25 mg/mL only, no Proclin 300, line of 1.4% Proclin 300): 1.34 | MEAN absorbance, solutions 7-11 ([2]; Day 14, BSA 50 mg/mL only, no Proclin 300, line of 1.4% Proclin 300): 1.39 | absorbance of the sarcosine oxidase enzyme compared to samples containing 0 mg/mL of BSA ([2]; days 4 and 14, 5, 25 and 50 mg/mL BSA, with Proclin 300): increased absorbance | sarcosine oxidase absorbance, solutions 7-11 [2, 10]: increased (or at least maintained) | Absorbance, solutions 7-11 [3, 11]: 0.658 and 0.656 and 0.654 and 0.693 and 0.67 | MEAN absorbance, solutions 7-11 [3, 11]: 0.45 | Absorbance, solutions 7-11 [3, 12]: 0.65 and 0.644 and 0.679 and 0.656 and 0.652 | MEAN absorbance, solutions 7-11 [3, 12]: 0.44 | Absorbance, solutions 7-11 [3, 13]: 0.669 and 0.654 and 0.645 and 0.676 and 0.685 | MEAN absorbance, solutions 7-11 [3, 13]: 0.45 | Absorbance, solutions 7-11 [3, 14]: 0.613 and 0.607 and 0.624 and 0.644 and 0.627 | MEAN absorbance, solutions 7-11 [3, 14]: 0.41 | Absorbance, solutions 7-11 [3, 15]: 0.682 and 0.675 and 0.716 | MEAN absorbance, solutions 7-11 [3, 15]: 0.48 | Absorbance, solutions 7-11 [3, 16]: 0.593 and 0.598 and 0.617 and 0.624 and 0.606 | MEAN absorbance, solutions 7-11 [3, 16]: 0.39 | Absorbance, solutions 7-11 [3, 17]: 0.886 and 0.907 and 0.938 and 0.922 and 0.893 | MEAN absorbance, solutions 7-11 [3, 17]: 0.69 | Absorbance, solutions 7-11 [3, 18]: 0.863 and 0.829 and 0.895 and 0.929 and 0.882 | MEAN absorbance, solutions 7-11 [3, 18]: 0.65 | Absorbance, solutions 7-11 [3, 19]: 0.783 and 0.769 and 0.787 and 0.807 | MEAN absorbance, solutions 7-11 [3, 19]: 0.56 | Absorbance, solutions 7-11 [3, 20]: 0.757 and 0.715 and 0.735 and 0.756 and 0.767 | MEAN absorbance, solutions 7-11 [3, 20]: 0.52 | Absorbance, solutions 7-11 [3, 21]: 0.671 and 0.651 and 0.656 and 0.677 and 0.657 | MEAN absorbance, solutions 7-11 [3, 21]: 0.44 | Absorbance, solutions 7-11 [3, 22]: 0.671 and 0.657 and 0.676 and 0.674 and 0.645 | MEAN absorbance, solutions 7-11 [3, 22]: 0.44 | Absorbance, solutions 7-11 [3, 23]: 0.993 and 0.992 and 0.972 and 1.009 | MEAN absorbance, solutions 7-11 [3, 23]: 0.76 | Absorbance, solutions 7-11 [3, 24]: 0.987 and 0.959 and 0.967 and 1.007 and 0.986 | MEAN absorbance, solutions 7-11 [3, 24]: 0.75 | Absorbance, solutions 7-11 [3, 25]: 0.841 and 0.843 and 0.815 and 0.846 and 0.808 | MEAN absorbance, solutions 7-11 [3, 25]: 0.60 | Absorbance, solutions 7-11 [3, 26]: 0.825 and 0.799 and 0.805 and 0.829 and 0.817 | MEAN absorbance, solutions 7-11 [3, 26]: 0.59 | Absorbance, solutions 7-11 [3, 27]: 0.672 and 0.653 and 0.659 and 0.682 and 0.685 | MEAN absorbance, solutions 7-11 [3, 27]: 0.44 | Absorbance, solutions 7-11 [3, 28]: 0.652 and 0.643 and 0.64 and 0.67 and 0.655 | MEAN absorbance, solutions 7-11 [3, 28]: 0.42 | absorbance of the creatininase enzyme compared to samples containing 0 mg/mL of BSA ([3]; day 4, Proclin 300 0.7%, 5, 25 and 50 mg/mL BSA): mild increase | creatininase absorbance, solutions 7-11 [3, 10]: increased (or at least maintained)
